Measurements from patent US20040033213A1, “Methods of modulating dendritic cells using adjuvants” (Corixa Corporation, priority 2002, published 2004).

What was measured:
Type in all cases: cell-based
[1] = test system: murine bone marrow derived DCs + D011.10 T cells; assay: APC function of ova-pulsed, lipid A potentiated murine DCs co-cultured with D011.10 T cells (cytokine ELISA)
From the text: These antigen pulsed, lipid A potentiated cells were then washed thoroughly and titered against ova-specific T cell effector cells in vitro at an APC: T cell ratio titration of 1:1 out to as high as 1:512. The effector T cells in this in vitro assay were the antigen naive, but antigen (ova) specific, MHC restricted I-A^d splenic T cells from transgenic D011.10 mice.
D011.10 TCR-transgenic mice were used in these experiments as donors of antigen specific naive T cells. In their germline DNA these mice contain rearranged TCR-Vα and -Vβ genes that encode a T cell receptor (TCR) specific for the ovalbumin peptide 323-339 bound to IA^d (Balb/c) Class II MHC molecules. The transgenic ova peptide specific TCR can be detected with the KJ1-26 monoclonal antibody (mAb) that binds only to this particular TCR heterodimer. These cells provide a ready source of “normal” antigen (ova)-specific effector T cells. Effective antigen-mediated APC stimulation of those T cells is generally measured by ELISA quantitation of IL-2 or IFN-γ in the culture supernatants of DC+D011.10 T cells after 24-48 hours of incubation.
In one experiment, murine bone marrow derived DCs (6 day cultures) were pulsed with ova (50 μg/ml-5×10^5 cells/ml) and then potentiated overnight with LPS(R595), MPL® immunostimulant-S, RC-527, RC-529 or RC-544 prior to being cultured together with naive D011.10 effector T cells (FIGS. 1-7). The APC function of these DCs as measured by their ability to stimulate IL-2, IFN-γ IL-12 (p70) and IL-12 (p40) secretion in the DC+D011.10 co-culture systems was analyzed. All of the data shown in FIGS. 1-7 was developed from DCs maintained in lipid A induction cultures for either 15 or 38 hours prior to use in the T cell assay.

[2] = test system: 6-7 day cultured human dendritic cells; assay: ELISA of cytokines (IL-12 p40, IL-12 p70, TNF-α) in 22 h induction supernatants of cultured human dendritic cells; settings: for IL-12 p40 / IL-12 p70 / TNF-α: 22 Hrs
From the text: Recent articles have described how human dendritic cells can be derived in vitro from CD14 positive monocyte precursors in peripheral blood. A “buffy coat” preparation can now be commonly obtained from a unit of normal human peripheral blood from a blood bank on request. The leukocyte fraction was harvested from this buffy coat preparation using standard ficoll centrifugation techniques. Subsequently, the leukocyte fraction was labeled with anti-CD 14 antibody coupled to magnetic microbeads. This preparation was then passed over a magnet (Miltanyi Biotech) and CD14 positive monocytes were collected. These CD14 positive monocyte precursors were then cultured for 5-7 days in vitro (5×10^5 cells/ml) with GM-CSF (20 ng/ml) for the duration of the culture. […] After the 24 hour in vitro stimulation culture, cells were washed twice and stained with a panel of monoclonal antibodies specific for different cell surface activation and co-receptor molecules found on mature, activated DCs.
Supernatants from DCs stimulated with LPS, MPL® immunostimulant-S, RC-527, RC-529, and RC-544 were collected and tested by ELISA analysis for cytokines.

[3] = test system: cultured human DCs + autologous T cells
[4] = test system: Human d7 Cultured Dendritic Cells; assay: Flow cytometry phenotype analysis of human d7 cultured dendritic cells after 24 h stimulation; settings: for HLA-DR MFI: 7 day DCs, 24 h stimulation
[5] = Exp. # 092398, Day 7, LPS 10 ng/ml, others 100 ng/ml
[6] = Exp. # 093098, LPS 10 ng/ml, others 100 ng/ml
[7] = Exp. 091698, 24 h, LPS 10 ng/ml, others 100 ng/ml
[8] = Exp. 092398, 24 h, LPS 10 ng/ml, others 100 ng/ml
[9] = Exp. 093098, 24 h, LPS 10 ng/ml, others 100 ng/ml

CCCCCCCCCCCCCC(=O)O[C@H](CCCCCCCCCCC)CC(=O)NCCO[C@@H]1O[C@H](CO)[C@@H](OP(=O)(O)O)[C@H](OC(=O)C[C@@H](CCCCCCCCCCC)OC(=O)CCCCCCCCCCCCC)[C@H]1NC(=O)C[C@@H](CCCCCCCCCCC)OC(=O)CCCCCCCCCCCCC.CCN(CC)CC [RC-529, 2-[(R)-3-Tetradecanoyloxytetradecanoylamino]ethyl 2-Deoxy-4-O-phosphono-3-O-[(R)-3-tetradecanoyoxytetradecanoyl]-2-[(R)-3-tetradecanoyoxytetradecanoylamino]-β-D-glucopyranoside triethylammonium salt]
IFN-γ release by D011.10 T cells (in words) ([1]; DCs precultured 38 hours, FIG. 3): very comparable to each other | IL-2 secretion (in words) ([1]; DCs prestimulated 15 hours, all T cell:APC ratios, FIG. 1): comparable in their ability to stimulate IL-2 secretion | IL-12 (p70) in DC+D011.10 co-cultures (in words) ([1]; FIG. 5): weakest ability | release of IL-12 (p40) homodimer in DC+D011.10 co-cultures (in words) ([1]; FIG. 7): moderately less potent than either RC-544 or MPL® immunostimulant-S | IL-12 p40 ([2]; Exp. # 091698, LPS 10 ng/ml, others 100 ng/ml): 38,700 pg/mL/5 × 10^5 Cells | IL-12 p70 ([2]; Exp. # 092398 (second line, Day7), LPS 10 ng/ml, others 100 ng/ml): 215.3 pg/ml/5 × 10^5 Cells | IL-12 p40 [2, 5]: 127,500 pg/mL/5 × 10^5 Cells | TNF-α [2, 5]: 7,400 pg/mL/5 × 10^5 Cells | IL-12 p70 ([2]; Exp. # 092398 as printed (first line of section), LPS 10 ng/ml, others 100 ng/ml): 4.2 pg/ml/5 × 10^5 Cells | IL-12 p70 ([2]; Exp. # 092398 as printed (third line of section), LPS 10 ng/ml, others 100 ng/ml): 28.2 pg/ml/5 × 10^5 Cells | IL-12 p40 [2, 6]: 60,700 pg/mL/5 × 10^5 Cells | TNF-α [2, 6]: 372 pg/mL/5 × 10^5 Cells | IL-12 (p40) expression (in words) ([2]; all three experiments, LPS 10 ng/ml, others 100 ng/ml): also stimulated IL-12 (p40) responses | IL-12 (p70) (in words) ([2]; the one donor in which LPS and MPL-S gave a significant amount): high levels of IL-12 (p70) | TNF-α secretion (in words) ([2]; three donors): moderately lower than the effect due to RC-527 | T cell proliferation / DC activation, CPM 3H-thymidine response (in words) [3]: comparable in their effect and quantitatively higher than the background response | CD 1a % positive cells [4, 7]: 94.3% | CD 1a MFI [4, 7]: 9.29 | CD 4 % positive cells [4, 7]: 77.0% | CD 4 MFI [4, 7]: 2.44 | CD 14 % positive cells [4, 7]: 7.5% | CD 35 % positive cells [4, 7]: 47.6% | CD 35 MFI [4, 7]: 2.66 | CD 40 MFI [4, 7]: 22.0 | CD 44 MFI [4, 7]: 285 | CD 54 MFI [4, 7]: 28.2 | CD 62 L % positive cells [4, 7]: 6.4% | CD 69 % positive cells [4, 7]: 4.4% | CD 80 % positive cells [4, 7]: 98.9% | CD 80 MFI [4, 7]: 6.19 | CD 83 % positive cells [4, 7]: 71.0% | CD 83 MFI [4, 7]: 2.89 | CD 86 % positive cells [4, 7]: 98.7% | CD 86 MFI [4, 7]: 9.30 | CD 95 % positive cells [4, 7]: 53.8% | CD 95 MFI [4, 7]: 1.12 | HLA-DR MFI ([4]; Exp. 091698, LPS 10 ng/ml, others 100 ng/ml): 88.2 | CD 1a % positive cells [4, 8]: 86.5% | CD 1a MFI [4, 8]: 5.47 | CD 4 % positive cells [4, 8]: 71.6% | CD 4 MFI [4, 8]: 2.65 | CD 14 % positive cells [4, 8]: 4.2% | CD 35 % positive cells [4, 8]: 58.8% | CD 35 MFI [4, 8]: 2.92 | CD 40 MFI [4, 8]: 31.5 | CD 54 MFI [4, 8]: 36.6 | CD 62 L % positive cells [4, 8]: 11.1% | CD 69 % positive cells [4, 8]: 11.0% | CD 80 % positive cells [4, 8]: 99.1% | CD 80 MFI [4, 8]: 8.46 | CD 83 % positive cells [4, 8]: 94.7% | CD 83 MFI [4, 8]: 3.32 | CD 86 % positive cells [4, 8]: 99.9% | CD 86 MFI [4, 8]: 25.3 | CD 95 % positive cells [4, 8]: 90.4% | CD 95 MFI [4, 8]: 1.43 | αC5aR + GAR Alexa % positive cells [4, 8]: 53.4% | CD 44 MFI ([4]; Exp. 092398, 24 h, LPS 10 ng/ml, others 100 ng/ml, values printed with a trailing +): 442+ | GAR-Alexa % positive cells ([4]; Exp. 092398, 24 h, secondary reagent staining, LPS 10 ng/ml, others 100 ng/ml): 2.4% | HLA-DR MFI ([4]; Exp. 092398, LPS 10 ng/ml, others 100 ng/ml): 158.8 | CCR 6 % positive cells [4, 9]: 5.3% | CD 1a % positive cells [4, 9]: 80.1% | CD 1a MFI [4, 9]: 6.51 | CD 3 % positive cells [4, 9]: 27.3% | CD 3 MFI [4, 9]: 3.87 | CD 4 % positive cells [4, 9]: 77.9% | CD 4 MFI [4, 9]: 2.97 | CD 11c % positive cells [4, 9]: 92.4% | CD 11c MFI [4, 9]: 6.82 | CD 14 % positive cells [4, 9]: 3.9% | CD 40 MFI [4, 9]: 26.1 | CD 54 MFI [4, 9]: 36.4 | CD 62 L % positive cells [4, 9]: 3.4% | CD 80 % positive cells [4, 9]: 99.1% | CD 80 MFI [4, 9]: 10.7 | CD 83 % positive cells [4, 9]: 82.4% | CD 83 MFI [4, 9]: 3.38 | CD 86 % positive cells [4, 9]: 99.7% | CD 86 MFI [4, 9]: 22.0 | CD 123 % positive cells [4, 9]: 44.1% | CD 123 MFI [4, 9]: 1.90 | αC5aR + Alexa 488 % positive cells [4, 9]: 48.6% | αC5aR + Alexa 488 MFI [4, 9]: 10.4 | HLA-DR MFI ([4]; Exp. 093098, LPS 10 ng/ml, others 100 ng/ml): 161.5 | upregulation of HLA-DR expression (in words) ([4]; RC-529 compared with RC-544, all three experiments): slightly more effective | stimulating the expression of HLA-DR and co-stimulatory molecules (in words) ([4]; RC-529 compared with RC-544, three experiments): very comparable effects
